{"source": "patent US11459313B2", "about": "“Aziridinyl and amino dimeric naphthoquinone compounds and use for acute myeloid leukemia” (University of Maryland, Baltimore, priority 2016, dated 2022)", "key": {"MOLM-14 cells [1]": {"system": "MOLM-14 cells", "assay": "Cellular reactive oxygen species (H2DCFA), MOLM-14", "format": "cell-based, human", "description": "MOLM-14 and THP-1 cells in logarithmic growth phase were centrifuged and resuspended in PBS at one million cells per milliliter (mL) of medium. Cells were preloaded with 2′,7′-dichlorodihydrofluorescein diacetate (H2DCFA, Life Technologies®) at a final concentration of 2 μM and incubated at 37° C. in the dark for 25 minutes. Cells were centrifuged and resuspended at one million per mL in phenol red-free RPMI plus 10% FBS and incubated at 37° C. in the dark for 25 minutes. Treatments were prepared at 2× concentrations of […] in complete phenol red-free RPMI and added to each well to yield 1× concentrations of 20, 10, 2, or 0.5 μM. Cells were incubated in the dark at 37° C. and measurement of ROS was performed with a Bio-tek® Synergy HT plate reader at various time points post treatment.\nIn order to elucidate the mechanisms by which the bis-aziridinyl naphthoquinone exerts anti-leukemic activity, the amount of reactive oxygen species (ROS) that cells produced upon treatment with Compound 101 was examined. MOLM-14 and THP-1 cells were loaded with the ROS dye H2DCFA and subsequently plated into 96-well plates. Cells were treated with vehicle (negative control), Compound 101 in varying concentrations, or hydrogen peroxide (positive control), and observed over a period of 2-6 hours. The relative fluorescence units (RFU) were read at various time points. […]"}, "MOLM-14 cells [2]": {"system": "MOLM-14 cells", "assay": "Clonogenic assay, MOLM-14", "format": "cell-based, human", "conditions": "24 hours exposure, then methylcellulose; p<0.05 at 1, 10 and 100 μM", "description": "(§1) MOLM-14 and THP-1 were treated with either DMSO control or mono-aziridine dimeric naphthoquinone or bis-aziridinyl dimeric naphthoquinone compounds at concentrations of 0.1, 1, 10 and 100 μM (micromolar) for 24 hours. The cells then were washed with growth medium and resuspended in growth medium and methylcellulose with or without DMSO or the treatment compounds. After 7 or 13 days (MOLM-14 or THP-1, respectively), treatment was terminated by addition of 1.0 mg/mL, iodonitrotetrazolium chloride (INT; Sigma Aldrich®) and read 24 hours later with an automated colony counter (Symbiosis®). Data were analyzed and graphed using GraphPad Prism® software.\n(§2) Next, the effect of bis-aziridinyl-dimeric naphthoquinone Compound 101 on AML cell survival and viability. […] For colony formation assays, cell lines were treated with the indicated doses of aziridinyl dimeric naphthoquinone Compound 101 for 24 hours, and subsequently washed and plated in methylcellulose to observe clonogenic potential after 7-10 days. See above for additional comments on the methods.\n(§3) Clonogenic inhibition was […] when bis-aziridinyl dimeric naphthoquinone was removed from cells after 24 hours of treatment. The bis-aziridinyl dimeric naphthoquinone was able to reduce clonogenicity with just a 24-hour exposure prior to plating."}, "[3]": {"assay": "Safety and tolerability in NSG mice", "format": "in vivo", "conditions": "female NSG mice; 5, 10 or 15 mg/kg intraperitoneal daily for 5 days, one week observation", "description": "Considering the significant antineoplastic, activity of Compound 101, the safety and tolerability of this agent was tested in vivo on female NSG nice. Groups of three female NOD.Cg-Prkdc^scid Il2rg^tm1Wjl/SzJ (NSG) mice were tested with 5, 10 or 15 mg/kg of Compound 101 delivered by intraperitoneal injection daily for 5 consecutive days, and the mice monitored for one additional week. […] An asterisk (*) denotes days of dosing."}, "MOLM-14 cells [4]": {"system": "MOLM-14 cells", "assay": "Gamma-H2Ax immunofluorescence assay, MOLM-14", "format": "cell-based, human", "conditions": "24 hours; 200 nM, 1.0 and 2.0 μM", "description": "MOLM-14 cells were seeded in the afternoon and the following morning treated with DMSO, or aziridinyl-dimeric naphthoquinone Compound 101 at 1×, 5×; or 10× IC50 concentrations. Cells were harvested at 24 and 48 hours. Briefly, cells were washed twice with PBS, counted, and resuspended into PBS/2% FBS. Approximately 150,000 cells were pelleted on Superfrost® microslides (Thermo Fisher Scientific®) using a cytospin machine (Thermo Fisher Scientific®) for 10 minutes at 800 RPM. Slides were air-dried for 5 minutes, then fixed in 4% paraformaldehyde for 15 minutes, washed with PBS 3 times, each time for 5 minutes and permeabilized with permeabilization buffer (50 mM NaCl, 3 mM MgCl2, 10 mM HEPES, 200 mM sucrose, and 0.5% Triton-X-100) for 10 minutes. After overnight blocking in PBS/10% FBS, slides were washed 3 times, each time for 5 minutes with wash buffer (PBS, 1% BSA, and 0.1% Triton-X-100), stained with 1:100 anti-phosphohistone H2Ax antibody (Millipore®), washed with wash buffer again 3 times, each time for 5 minutes, and stained with 1:200 goat anti-mouse IgG, Dylight 594® (Thermo Scientific®), washed 3 times, each time for 5 minutes with wash buffer, and mounted with Vectashield® mounting medium with 4′,6-diamidino-2-phenylindole (DAPI, Vector Labs®). Slides sat overnight and were sealed the following day with clear nail polish. […]"}, "MV4-11 cells": {"system": "MV4-11 cells", "assay": "WST-1 cell proliferation assay, MV4-11", "format": "cell-based, human", "conditions": "Homo sapiens, MV4-11, Example 5 text; read-out: IC50 MV4-11", "description": "Cell lines were seeded into 96-well plates the afternoon prior to treatment. Approximately 18 hours later, bis and mono-aziridine dimeric naphthoquinone compounds were semi-serially diluted in dimethyl sulfoxide (DMSO) and then growth medium, and added to cells. Plates were incubated for 72 hours prior to addition of WST-1 (Promega®). Plates were read after 4 additional hours of incubation at 37° C. using a Bio-Tek Synergy® HT plate reader (Bio-Tek®). Data were analyzed and graphed using GraphPad Prism® Software (Graph Pad®).\nPrimary AML cells from patients and cell lines were seeded into 96-well plates the afternoon prior to treatment. Eighteen hours later, amino-dimeric naphthoquinone Compounds 106, 101, and 114 were semi-serially diluted in dimethyl sulfoxide (DMSO) and then growth medium, and added to the cells. In order to quantitate proliferation of metabolically active cells, plates were incubated for 72 hours for cell lines and 48 hours for primary AML cells prior to addition of water-soluble tetrazolium (WST-1) (Clontech®). Plates were read after four additional hours of incubation at 37° C. using a Bio-Tek Synergy® HT plate reader (Bio-Tele®). Data were analyzed and graphed using GraphPad Prism® Software (GraphPad®). IC50 was defined as the concentration that decreases viable cell numbers by 50%. IC50 values were calculated as mean±standard deviation from at least two independent experiments. If availability of primary blasts was limited, the IC50 was obtained from a single experiment."}, "THP-1 cells": {"system": "THP-1 cells", "assay": "Clonogenic assay, THP-1", "format": "cell-based, human", "conditions": "24 hours exposure, then methylcellulose; p<0.05 at 1, 10 and 100 μM", "description": "as §1, §2, §3"}}, "note": "Entries after “also recorded” stand apart in the source; their conditions may differ.", "data": [{"molecule": "O=C1C(C2=C(N3CC3)C(=O)c3ccccc3C2=O)=C(N2CC2)C(=O)c2ccccc21", "note": "[Compound 101, 3,3′-di(aziridin-1-yl)-[2,2′-binaphthalene]-1,1 4,4′-tetrone]", "values": [{"measurement": "time to production of ROS, MOLM-14", "setting": "MOLM-14 cells [1]", "value": "≤ 2", "unit": "h"}, {"measurement": "ROS production, MOLM-14", "setting": "MOLM-14 cells [1]; 0.5-20 μM, 2-6 hours", "value": "dose-dependent increase in ROS production"}, {"measurement": "clonogenic activity (colony formation), MOLM-14", "setting": "MOLM-14 cells [2]", "value": "marked reduction in clonogenic activity; also recorded: inhibits clonogenicity"}, {"measurement": "mean body weight loss", "setting": "[3]", "value": "≤ 10", "unit": "%"}, {"measurement": "tolerability", "setting": "[3]", "value": "tolerated the compound well with no weight loss observed"}, {"measurement": "γ-H2Ax phosphorylation (double-stranded DNA breaks), MOLM-14", "setting": "MOLM-14 cells [4]", "value": "substantial γ-H2Ax phosphorylation"}, {"measurement": "IC50", "setting": "MV4-11 cells", "value": "1.05 ± 0.05", "unit": "µM"}, {"measurement": "clonogenic activity (colony formation), THP-1", "setting": "THP-1 cells", "value": "marked reduction in clonogenic activity; also recorded: inhibits clonogenicity"}]}]}
